# Measurements published in US20080269238A1, “Thiazolopyrimidine Derivative” (TAKEDA PHARMACEUTICAL COMPANY LIMITED, priority 2004, published 2008).
# Molecular target: T1, HER2 kinase (intracellular domain of HER2) (Homo sapiens, UniProt P04626)
# T1 construct: FLAG (N); made in house; host or cells: SF-21 insect cells infected with recombinant baculovirus BAC-HER2
# Assay: Measurement of inhibition activity of HER2 kinase
# Type: biochemical
# Settings: test compound 1.0 μM, poly-Glu:Tyr(4:1) substrate, [γ-32P]ATP, 25° C. 10 minutes, read-out: Inhibition rate (%) in 1.0 μM
# Procedure: Cloning of Human HER2 Gene was performed with RT-PCR templating total RNA prepared from MCF 7 cell. To attach Flag tag in N-terminal of HER2, a primer used in RT-PCR was manufactured by adding flag peptide coding sequence and restricted enzyme recognition sequence to the base sequence (2176-3918 in Genbank Accession M11730) which codes a part of intracellular domain of the protein using an information of base sequence of HER2 Gene (Genbank Accession M11730). Base sequence of the primer was shown as below.
# (§1) RT reaction was performed using a SuperScript First-Strand Synthesis system for RT-PCR (Invitrogen), and PCR reaction was performed using a KOD-plus kit (TOYOBO). The obtained PCR product was subjected to electrophoresis on agarose gel (1%), and digested with Sal I and Sph I after collecting a DNA fragment amplified by PCR from the gel. The DNA treated with restricted enzymes was subjected to electrophoresis on agarose gel (1%), the obtained DNA fragment was collected, and ligated to a plasmid pFASTBAC1 (Invitrogen) digested with restricted enzymes Sal I and Sph I, resulting that expression plasmid pFB-HER2 was manufactured. Base sequence of inserted fragment was confirmed. As a result, the base sequence of inserted fragment was corresponded with base sequence of the intracellular domain of the HER2 (pp. 2176-3918 in Genbank Accession M11730). Further, a recombinant baculovirus BAC-HER2 was prepared using BAC-TO-BAC Baculovirus Expression System (Invitrogen).
# A SF-21 cell was plated with 1×10^6 cells/ml in a Sf-900II SFM medium (Invitrogen) containing 10% of fetal bovine serum (Trace), 50 mg/L of Gentamicin (Invitrogen) and 0.1% of Pluronic F-68 (Invitrogen), and cultured with shaking at 27° C. at 100 rpm using a 2 L meyer. After culturing for 24 hours, 13.4 ml of a recombinant baculovirus BAC-HER2 was added thereto, and further cultured for 3 days. The cultured solution was centrifuged at 2,000 rpm for 5 minutes, and a virus-infected cell was obtained. The cell was washed with phosphate buffered saline (Invitrogen), centrifuged under the same condition, and preserved at −80° C. The freezing preserved cell was melted on ice, suspended with 30 ml of a buffer A (50 mM of tris-buffer containing 20% of glycerol and 0.15M of NaCl (pH 7.4)) to which was added Complete Protease Inhibitor (Behringer), and crushed at 20,000 rpm for 30 seconds three times using Polytron homogenizer (Kinematica). The crushed solution was clarified by centrifugation at 40,000 rpm for 30 minutes, and filtered using a 45 μm filter. The filtrate was passed through a column filled with Anti-FLAG M2 Affinity Gel (Sigma Corp.) in a flow rate of about 0.5 mL/min. The column was washed with a buffer A, and eluted with a buffer A containing 100 μg/mL of FLAG peptide. The eluted solution was concentrated by Vivaspin 20 of MWCO (molecular weight of cut-off) 30K (Vivascience). This concentrated solution was gel-filtrated and purified by a Hi Load Superdex 200 pg 16/60 (Amersham Biosciences) equilibrated with the buffer A. The fraction containing the intracellular domain of HER2 was collected, and glycerol was added thereto to be a 50% of terminal concentration, and then freezing preserved at −80° C.
# The test compound dissolved in dimethylsulfoxide (DMSO) was diluted with buffer for measuring the kinase reaction (50 mM of Tris-HCl (pH 7.5), 5 mM of MgCl2, 5 mM MnCl2, 2 mM of dithiothreitol, 0.01% of Tween-20). […]
# T1 sequence (P04626 676-1255 limits assumed): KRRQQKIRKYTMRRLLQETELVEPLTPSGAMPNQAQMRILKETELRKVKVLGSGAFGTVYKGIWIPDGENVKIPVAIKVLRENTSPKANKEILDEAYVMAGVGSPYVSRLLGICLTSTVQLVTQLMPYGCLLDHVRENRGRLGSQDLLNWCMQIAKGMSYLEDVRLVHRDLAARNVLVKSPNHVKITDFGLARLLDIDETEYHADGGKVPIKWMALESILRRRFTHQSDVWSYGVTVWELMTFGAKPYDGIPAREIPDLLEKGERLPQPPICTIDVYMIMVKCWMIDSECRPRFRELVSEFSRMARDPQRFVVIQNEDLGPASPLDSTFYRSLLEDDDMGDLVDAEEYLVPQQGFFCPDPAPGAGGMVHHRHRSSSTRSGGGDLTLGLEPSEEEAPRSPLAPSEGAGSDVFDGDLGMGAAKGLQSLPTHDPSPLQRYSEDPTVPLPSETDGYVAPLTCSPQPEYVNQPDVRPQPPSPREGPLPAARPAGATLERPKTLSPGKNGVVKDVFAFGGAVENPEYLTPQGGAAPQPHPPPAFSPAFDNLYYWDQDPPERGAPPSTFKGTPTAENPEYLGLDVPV
row,inhibition at 1 µM,SMILES
1,87%,"O=C(CO)NCc1ccc(-c2nc3c(Nc4ccc(OCc5ccsc5)c(Cl)c4)ncnc3s2)cc1 [Example 80, N-[4-(7-{[3-chloro-4-(3-thienylmethoxy)phenyl]amino}[1,3]thiazolo[5,-d]pyrimidin-2-yl)benzyl]-2-hydroxyacetamide]"
2,96%,"COCCNCc1ccc(-c2nc3c(Nc4ccc(F)c(Cl)c4)ncnc3s2)cc1 [Example 39, N-(3-chloro-4-fluorophenyl)-2-(4-{[(2-methoxyethyl)amino]methyl}phenyl) [1,3]thiazolo[5,4-d]pyrimidin-7-amine]"
3,89%,"COCCNCCc1ccc(-c2nc3c(Nc4ccc(Oc5ccc(C)nc5)c(C)c4)ncnc3s2)cc1 [Example 41, 2-(4-{2-[(2-methoxyethyl)amino]ethyl}phenyl)-N-{3-methyl-4-[(6-methylpyridin-3-yl)oxy]phenyl}[1,3]thiazolo[5,4-d]pyrimidin-7-amine]"
4,90%,"OCCNCc1ccc(-c2nc3c(Nc4ccc(Oc5cccc(C(F)(F)F)c5)c(Cl)c4)ncnc3s2)cc1 [Example 58, 2-({4-[7-({3-chloro-4-[3-(trifluoromethyl)phenoxy]phenyl}amino)[1,3]thiazolo[5,4-d]pyrimidin-2-yl]benzyl}amino)ethanol]"
5,92%,"OCCNCc1ccc(-c2nc3c(Nc4ccc(OCc5cccc(F)c5)c(Cl)c4)ncnc3s2)cc1 [Example 26, 2-({4-[7-({3-chloro-4-[(3-fluorobenzyl)oxy]phenyl}amino)[1,3]thiazolo[5,4-d]pyrimidin-2-yl]benzyl}amino)ethanol]"

# Molecular target: T2, EGF receptor kinase (intracellular domain of EGF receptor) (Homo sapiens, UniProt P00533)
# T2 construct: FLAG (N); made in house; host or cells: SF-21 insect cells infected with recombinant baculovirus BAC-EGFR
# T2 sequence (P00533 669-1210 limits assumed): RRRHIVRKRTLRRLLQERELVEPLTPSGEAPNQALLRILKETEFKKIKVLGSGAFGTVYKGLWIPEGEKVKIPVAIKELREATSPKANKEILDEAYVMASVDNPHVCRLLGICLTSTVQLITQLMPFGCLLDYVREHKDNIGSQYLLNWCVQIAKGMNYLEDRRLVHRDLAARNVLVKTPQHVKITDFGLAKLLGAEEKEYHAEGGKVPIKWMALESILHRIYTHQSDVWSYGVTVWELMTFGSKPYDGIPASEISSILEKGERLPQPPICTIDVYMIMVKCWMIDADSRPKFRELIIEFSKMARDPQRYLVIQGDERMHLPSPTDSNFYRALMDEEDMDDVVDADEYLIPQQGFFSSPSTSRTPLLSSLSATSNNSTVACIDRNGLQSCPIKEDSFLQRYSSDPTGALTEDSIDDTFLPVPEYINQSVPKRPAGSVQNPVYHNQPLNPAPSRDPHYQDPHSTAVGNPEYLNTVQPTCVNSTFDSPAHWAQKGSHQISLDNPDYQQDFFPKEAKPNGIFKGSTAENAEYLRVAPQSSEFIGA
# Assay: Measurement of inhibition activity of EGF receptor kinase
# Type: biochemical
# Settings: EGFR kinase; test compound 1.0 μM; biotinyl-poly-Glu:Tyr (4:1), α-screen assay, 25° C. 10 minutes; read-out: Inhibition rate (%) in 1.0 μM
# Procedure: Cloning of Human EGF Receptor Gene was performed with RT-PCR templating total RNA prepared from A431 cell. To attach Flag tag in N-terminal of EGF, a primer used in RT-PCR was manufactured by adding flag peptide coding sequence and restricted enzyme recognition sequence to the base sequence (2182-3810 in Genbank Accession XM—167493) which codes a part of intracellular domain of the protein using an information of base sequence of EGF receptor Gene (Genbank Accession XM—167493). The Base sequence of the primer was shown as below.
# as §1, with “and” for “resulting that”, “EGFR” for “the HER2”, “2182-3810” for “2176-3918”, “XM—167493).” for “M11730).”, “BAC-EGFR” for “BAC-HER2”
# A SF-21 cell was plated with 1×10^6 cells/ml in a Sf-900II SFM medium (Invitrogen) containing 10% of a fetal bovine serum (Trace), 50 mg/L of Gentamicin (Invitrogen) and 0.1% of Pluronic F-68 (Invitrogen), and cultured with shaking at 27° C. at 100 rpm using a 2 L meyer. After culturing for 24 hours, 13.4 mL of a recombinant baculovirus EGFR was added thereto, and further cultured for 3 days. The cultured solution was centrifuged in 2,000 rpm for 5 minutes, and a virus-infected cell was obtained. The cell was washed with phosphate buffered saline (Invitrogen), centrifuged under the same condition, and then preserved at −80° C. The freezing preserved cell was melted on ice, suspended with 30 mL of a buffer A (50 mM of tris-buffer containing 20% of glycerol and 0.15M of NaCl (pH 7.4)) to which was added Complete Protease Inhibitor (Behringer), and crushed at 20,000 rpm for 30 seconds three times using Polytron homogenizer (Kinematica). The crushed solution was clarified by centrifugation at 40,000 rpm for 30 minutes, and filtered using a 45 μm filter. The filtrate was passed through a column which is filled with Anti-FLAG M2 Affinity Gel (Sigma Corp.) in a flow rate of about 0.5 mL/min. The column was washed with a buffer A, and eluted with a buffer containing 100 μg/ml of FLAG peptide. […]
row,inhibition at 1 µM,SMILES
1,81%,"CC(=O)NCCCCCc1nc2c(Nc3ccc(OCc4cccc(F)c4)c(Cl)c3)ncnc2s1 [Example 46, N-{5-[7-({3-chloro-4-[(3-fluorobenzyl)oxy]phenyl}amino) [1,3]thiazolo[5,4-d]pyrimidin-2-yl]pentyl}acetamide]"
2,91%,"COCCNC(=O)c1nc2c(Nc3ccc(OCc4cccc(F)c4)c(Cl)c3)ncnc2s1 [Example 20, 7-({3-chloro-4-[(3-fluorobenzyl)oxy]phenyl}amino)-N-(2-methoxyethyl) [1,3]thiazolo[5,4-d]pyrimidine-2-carboxamide]"

# Continued, compound first:
row,SMILES,inhibition at 1 µM
1,"CS(=O)(=O)CCNCCNC(=O)c1nc2c(Nc3ccc(OCc4cccc(F)c4)c(Cl)c3)ncnc2s1 [Example 25, 7-({3-chloro-4-[(3-fluorobenzyl)oxy]phenyl}amino)-N-(2-{[2-(methylsulfonyl)ethyl]amino}ethyl)[1,3]thiazolo[5,4-d]pyrimidine-2-carboxamide]",88%
2,"Fc1cccc(COc2ccc(Nc3ncnc4sc(C5CC5)nc34)cc2Cl)c1 [Example 52, N-{3-chloro-4-[(3-fluorobenzyl)oxy]phenyl}-2-cyclopropyl[1,3]thiazolo[5,4-d]pyrimidin-7-amine]",81%
